Data: patent publication US9580416B2, “Inhibitors of Bruton's tyrosine kinase” (PHARMACYCLICS LLC, priority 2014, dated 2017)

Key:
Format in all cases: biochemical
Btk = Btk (Homo sapiens, UniProt Q06187); experiment: Btk kinase activity, TR-FRET assay; details: read-out: Btk (IC50)
Procedure, shortened: (§1)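 Enzyme (Btk 0.5 nM; Lck 6 nM) reacted 1 h with inhibitor, ATP at Km and biotin-peptide substrate in pH 7.4 buffer, 10% DMSO. Phosphopeptide detected by Eu-p-Tyr100 antibody plus streptavidin-APC (665/615 nm). IC50 calculated from fitted Ki(app) via ATP/Km correction plus half total enzyme.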

Lck = Lck (Homo sapiens, UniProt P06239); experiment: Lck kinase activity, TR-FRET assay; details: read-out: LCK (IC50)
Sequence of Lck (P06239 whole entry, species assumed): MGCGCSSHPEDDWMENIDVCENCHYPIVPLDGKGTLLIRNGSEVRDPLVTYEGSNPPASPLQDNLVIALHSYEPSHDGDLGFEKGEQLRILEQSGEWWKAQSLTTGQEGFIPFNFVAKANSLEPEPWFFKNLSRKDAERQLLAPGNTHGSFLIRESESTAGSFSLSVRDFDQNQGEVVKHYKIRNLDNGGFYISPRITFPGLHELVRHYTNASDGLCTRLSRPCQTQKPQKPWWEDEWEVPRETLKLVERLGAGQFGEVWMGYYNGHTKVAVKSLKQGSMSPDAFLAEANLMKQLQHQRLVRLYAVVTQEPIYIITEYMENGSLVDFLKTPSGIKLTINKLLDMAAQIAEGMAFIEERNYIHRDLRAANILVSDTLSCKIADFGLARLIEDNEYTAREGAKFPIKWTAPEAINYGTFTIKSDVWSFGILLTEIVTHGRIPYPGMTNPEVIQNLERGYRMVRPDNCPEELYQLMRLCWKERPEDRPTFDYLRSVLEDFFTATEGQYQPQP
Procedure, shortened: as §1

EGFR = EGFR (Homo sapiens, UniProt P00533); experiment: Inhibition of a panel of kinases, in vitro HotSpot kinase assay: EGFR
Sequence of EGFR (P00533 25-1210): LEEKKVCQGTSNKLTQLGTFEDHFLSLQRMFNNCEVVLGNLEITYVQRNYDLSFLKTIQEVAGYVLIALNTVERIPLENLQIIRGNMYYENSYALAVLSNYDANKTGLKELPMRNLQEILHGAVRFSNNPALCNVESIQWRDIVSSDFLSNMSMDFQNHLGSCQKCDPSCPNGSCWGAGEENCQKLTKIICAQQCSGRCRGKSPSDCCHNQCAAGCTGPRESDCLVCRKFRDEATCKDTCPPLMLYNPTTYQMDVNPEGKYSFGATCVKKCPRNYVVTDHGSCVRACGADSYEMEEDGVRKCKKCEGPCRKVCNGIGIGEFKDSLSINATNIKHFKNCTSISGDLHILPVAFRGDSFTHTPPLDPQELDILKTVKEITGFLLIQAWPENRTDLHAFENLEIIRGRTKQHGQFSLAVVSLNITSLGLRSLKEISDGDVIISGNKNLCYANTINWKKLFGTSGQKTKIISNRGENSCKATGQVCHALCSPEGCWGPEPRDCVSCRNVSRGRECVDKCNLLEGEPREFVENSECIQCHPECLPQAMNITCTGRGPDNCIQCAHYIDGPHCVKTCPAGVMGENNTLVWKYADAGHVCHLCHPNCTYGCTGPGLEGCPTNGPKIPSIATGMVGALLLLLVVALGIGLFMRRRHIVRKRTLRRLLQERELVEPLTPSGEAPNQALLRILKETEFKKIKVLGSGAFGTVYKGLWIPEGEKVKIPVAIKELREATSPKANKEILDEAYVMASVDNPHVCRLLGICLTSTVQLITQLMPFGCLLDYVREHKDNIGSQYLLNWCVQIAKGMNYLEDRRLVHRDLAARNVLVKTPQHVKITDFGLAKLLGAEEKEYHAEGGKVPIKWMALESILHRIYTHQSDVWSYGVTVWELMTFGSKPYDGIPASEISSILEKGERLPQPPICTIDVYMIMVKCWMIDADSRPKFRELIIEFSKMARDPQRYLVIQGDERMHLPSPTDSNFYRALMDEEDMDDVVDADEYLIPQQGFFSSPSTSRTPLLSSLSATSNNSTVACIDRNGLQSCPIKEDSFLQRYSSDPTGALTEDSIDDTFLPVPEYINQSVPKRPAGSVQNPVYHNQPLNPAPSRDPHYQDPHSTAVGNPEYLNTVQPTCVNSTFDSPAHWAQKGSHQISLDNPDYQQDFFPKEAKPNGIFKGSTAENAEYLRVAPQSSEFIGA
Procedure: (§2) The degree of inhibition of a panel of kinases is determined using the in vitro HotSpot kinase assay (purified enzymes, ^33P-ATP, an appropriate substrate and 1 uM ATP).

JAK3 = target: T1, JAK3 (Homo sapiens, UniProt P52333); experiment: Inhibition of a panel of kinases, in vitro HotSpot kinase assay: JAK3
T1 sequence (P52333 1-1124): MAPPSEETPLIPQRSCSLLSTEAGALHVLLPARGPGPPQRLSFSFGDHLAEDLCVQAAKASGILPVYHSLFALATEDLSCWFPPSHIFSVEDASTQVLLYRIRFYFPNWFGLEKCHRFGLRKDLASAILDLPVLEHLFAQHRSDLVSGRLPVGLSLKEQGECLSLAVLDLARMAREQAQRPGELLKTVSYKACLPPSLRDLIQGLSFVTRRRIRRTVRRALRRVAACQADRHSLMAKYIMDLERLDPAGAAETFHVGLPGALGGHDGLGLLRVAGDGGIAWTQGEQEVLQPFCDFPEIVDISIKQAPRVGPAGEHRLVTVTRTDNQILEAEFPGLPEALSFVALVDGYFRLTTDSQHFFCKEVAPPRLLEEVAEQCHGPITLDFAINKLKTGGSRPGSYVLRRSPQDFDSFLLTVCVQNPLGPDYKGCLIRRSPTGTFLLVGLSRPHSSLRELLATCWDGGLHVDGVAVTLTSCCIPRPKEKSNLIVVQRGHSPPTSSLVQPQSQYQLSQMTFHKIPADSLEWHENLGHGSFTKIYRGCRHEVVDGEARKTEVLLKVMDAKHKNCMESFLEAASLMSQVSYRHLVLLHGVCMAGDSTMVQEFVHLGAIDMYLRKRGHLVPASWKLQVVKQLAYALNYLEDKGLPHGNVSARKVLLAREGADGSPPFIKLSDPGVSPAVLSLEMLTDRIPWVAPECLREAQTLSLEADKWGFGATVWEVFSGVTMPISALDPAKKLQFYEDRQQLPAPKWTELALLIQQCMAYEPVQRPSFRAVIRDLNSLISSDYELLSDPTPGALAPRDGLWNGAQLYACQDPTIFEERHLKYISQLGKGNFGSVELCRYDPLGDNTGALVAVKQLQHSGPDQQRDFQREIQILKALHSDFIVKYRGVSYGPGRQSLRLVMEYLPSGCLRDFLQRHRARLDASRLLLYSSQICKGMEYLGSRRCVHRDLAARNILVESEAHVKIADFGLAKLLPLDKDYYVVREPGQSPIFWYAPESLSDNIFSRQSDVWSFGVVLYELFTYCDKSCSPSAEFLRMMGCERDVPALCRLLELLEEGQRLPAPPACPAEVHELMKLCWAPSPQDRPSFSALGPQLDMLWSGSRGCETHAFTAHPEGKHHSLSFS
Procedure: as §2

Sequence of Btk (Q06187 whole entry): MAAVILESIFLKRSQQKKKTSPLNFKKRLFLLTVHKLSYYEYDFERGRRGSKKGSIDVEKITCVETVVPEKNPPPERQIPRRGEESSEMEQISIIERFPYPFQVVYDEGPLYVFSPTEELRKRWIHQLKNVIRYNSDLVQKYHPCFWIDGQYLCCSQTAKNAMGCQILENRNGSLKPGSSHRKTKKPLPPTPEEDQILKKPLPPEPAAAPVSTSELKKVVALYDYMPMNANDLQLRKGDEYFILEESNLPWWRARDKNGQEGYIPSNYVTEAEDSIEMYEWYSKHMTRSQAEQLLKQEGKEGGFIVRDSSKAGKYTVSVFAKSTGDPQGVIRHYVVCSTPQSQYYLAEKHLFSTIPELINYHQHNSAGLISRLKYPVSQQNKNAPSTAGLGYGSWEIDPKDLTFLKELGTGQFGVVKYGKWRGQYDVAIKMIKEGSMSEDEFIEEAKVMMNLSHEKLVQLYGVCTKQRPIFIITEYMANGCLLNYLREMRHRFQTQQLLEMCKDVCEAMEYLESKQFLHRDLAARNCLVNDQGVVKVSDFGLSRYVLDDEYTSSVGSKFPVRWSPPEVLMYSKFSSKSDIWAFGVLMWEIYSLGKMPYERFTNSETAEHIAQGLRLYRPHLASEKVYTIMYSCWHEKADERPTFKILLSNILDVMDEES

In the case of CC1(C(=O)N2CCC[C@@H](Nc3n[nH]c4nccc(Oc5ccc(C(=O)Nc6ccccn6)cc5)c34)C2)CCOCC1 [compound 112, 4-[(3-{[(3R)-1-(4-methyloxane-4-carbonyl)piperidin-3-yl]amino}-1H-pyrazolo[3,4-b]pyridin-4-yl)oxy]N-(pyridin-2-yl)benzamide], the IC50 (Btk) is reported as less than 100 nM, the IC50 (Lck) is reported as 1000 to 10000 nM and the IC50 (EGFR) is reported as greater than 10000 nM. The IC50 (JAK3) was greater than 10000 nM.

Work on Cc1cccc(NC(=O)c2ccc(Oc3ccnc4[nH]nc(N[C@@H]5CCCN(C(=O)C6(C)COC6)C5)c34)cc2)n1 [compound 113, 4-[(3-{[(3R)-1-(3-methyloxetane-3-carbonyl)piperidin-3-yl]amino}-1H-pyrazolo[3,4-b]pyridin-4-yl)oxy]-N-(6-methylpyridin-2-yl)benzamide] yielded an IC50 (Btk) of 100 to 1000 nM, an IC50 (Lck) of 1000 to 10000 nM and an IC50 (EGFR) greater than 10000 nM. The IC50 (JAK3) was greater than 10000 nM.

Cc1cccc(NC(=O)c2ccc(Oc3ccnc4[nH]nc(N[C@@H]5CCCN(C(=O)C6(C)CCOCC6)C5)c34)cc2)n1 [compound 114, 4-[(3-{[(3R)-1-(4-methyloxane-4-carbonyl)piperidin-3-yl]amino}-1H-pyrazolo[3,4-b]pyridin-4-yl)oxy]-N-(6-methylpyridin-2-yl)benzamide] was tested, and the IC50 (Btk) was 100 to 1000 nM, the IC50 (Lck) was 1000 to 10000 nM and the IC50 (EGFR) was greater than 10000 nM. It also gave an IC50 (JAK3) greater than 10000 nM.

Work on Cc1ccnc(NC(=O)c2ccc(Oc3ccnc4[nH]nc(N[C@@H]5CCCN(C(=O)[C@@H]6CCOC6)C5)c34)cc2)c1 [compound 115, N-(4-methylpyridin-2-yl)-4-[(3-{[(3R)-1-[(3R)-oxolane-3-carbonyl]piperidin-3-yl]amino}-1H-pyrazolo[3,4-b]pyridin-4-yl)oxy]benzamide] yielded an IC50 (Btk) of less than 100 nM, an IC50 (Lck) of 100 to 1000 nM and an IC50 (EGFR) greater than 10000 nM. For the same molecule, the IC50 (JAK3) was greater than 10000 nM.

Cc1ccnc(NC(=O)c2ccc(Oc3ccnc4[nH]nc(N[C@@H]5CCCN(C(=O)[C@H]6CCOC6)C5)c34)cc2)c1 [compound 116, N-(4-methylpyridin-2-yl)-4-[(3-{[(3R)-1-[(3S)-oxolane-3-carbonyl]piperidin-3-yl]amino}-1H-pyrazolo[3,4-b]pyridin-4-yl)oxy]benzamide] gave an IC50 (Btk) of less than 100 nM, an IC50 (Lck) of 100 to 1000 nM and an IC50 (EGFR) of 1000 to 10000 nM. The IC50 (JAK3) was greater than 10000 nM.

Cc1ccnc(NC(=O)c2ccc(Oc3ccnc4[nH]nc(N[C@@H]5CCCN(C(=O)[C@@H]6CCCO6)C5)c34)cc2)c1 [compound 117, N-(4-methylpyridin-2-yl)-4-[(3-{[(3R)-1-[(2S)-oxolane-2-carbonyl]piperidin-3-yl]amino}-1H-pyrazolo[3,4-b]pyridin-4-yl)oxy]benzamide] was tested, and the IC50 (Btk) was less than 100 nM, the IC50 (Lck) was greater than 10000 nM and the IC50 (EGFR) was greater than 10000 nM. The IC50 (JAK3) was 1000 to 10000 nM.

Work on Cc1ccnc(NC(=O)c2ccc(Oc3ccnc4[nH]nc(N[C@@H]5CCCN(C(=O)CCN(C)C)C5)c34)cc2)c1 [compound 118, 4-[(3-{[(3R)-1-[3-(dimethylamino)propanoyl]piperidin-3-yl]amino}-1H-pyrazolo[3,4-b]pyridin-4-yl)oxy]-N-(4-methylpyridin-2-yl)benzamide] yielded an IC50 (Btk) of less than 100 nM, an IC50 (Lck) of less than 100 nM and an IC50 (EGFR) of 1000 to 10000 nM. For the same molecule, the IC50 (JAK3) was greater than 10000 nM.

COCCC(=O)N1CCC[C@@H](Nc2n[nH]c3nccc(Oc4ccc(C(=O)Nc5cc(C)ccn5)cc4)c23)C1 [compound 119, 4-[(3-{[(3R)-1-(3-methoxypropanoyl)piperidin-3-yl]amino}-1H-pyrazolo[3,4-b]pyridin-4-yl)oxy]-N-(4-methylpyridin-2-yl)benzamide] gave an IC50 (Btk) of less than 100 nM, an IC50 (Lck) of 100 to 1000 nM and an IC50 (EGFR) of 1000 to 10000 nM. For the same molecule, the IC50 (JAK3) was greater than 10000 nM.

Cc1ccnc(NC(=O)c2ccc(Oc3ccnc4[nH]nc(N[C@@H]5CCCN(C(=O)C6(C)CC6)C5)c34)cc2)c1 [compound 120, 4-[(3-{[(3R)-1-(1-methylcyclopropanecarbonyl)piperidin-3-yl]amino}-1H-pyrazolo[3,4-b]pyridin-4-yl)oxy]-N-(4-methylpyridin-2-yl)benzamide] showed an IC50 (Btk) of less than 100 nM, an IC50 (Lck) of 100 to 1000 nM and an IC50 (EGFR) greater than 10000 nM. It also gave an IC50 (JAK3) greater than 10000 nM.

Molecule C=CC(=O)N1CC[C@@H](Nc2n[nH]c3nccc(Oc4cccc(C(=O)Nc5ccc(C(C)C)c(C)c5)c4)c23)C1 [compound 122, N-[3-methyl-4-(propan-2-yl)phenyl]-3-[(3-{[(3R)-1-(prop-2-enoyl)pyrrolidin-3-yl]amino}-1H-pyrazolo[3,4-b]pyridin-4-yl)oxy]benzamide] has an IC50 (Btk) of less than 100 nM, an IC50 (Lck) of less than 100 nM and an IC50 (EGFR) of 100 to 1000 nM. For the same molecule, the IC50 (JAK3) was less than 100 nM.

In the case of CC(=O)N1CC[C@@H](Nc2n[nH]c3nccc(Oc4cccc(C(=O)Nc5ccc(C(C)C)c(C)c5)c4)c23)C1 [compound 123, 3-[(3-{[(3R)-1-acetylpyrrolidin-3-yl]amino}-1H-pyrazolo[3,4-b]pyridin-4-yl)oxy]-N-[3-methyl-4-(propan-2-yl)phenyl]benzamide], the IC50 (Btk) is reported as 100 to 1000 nM, the IC50 (Lck) is reported as less than 100 nM and the IC50 (EGFR) is reported as 1000 to 10000 nM. The IC50 (JAK3) was 1000 to 10000 nM.

Molecule CC(=O)N1CC[C@H](Nc2n[nH]c3nccc(Oc4cccc(C(=O)Nc5ccc(C(C)C)c(C)c5)c4)c23)C1 [compound 124, 3-[(3-{[(3S)-1-acetylpyrrolidin-3-yl]amino}-1H-pyrazolo[3,4-b]pyridin-4-yl)oxy]-N-[3-methyl-4-(propan-2-yl)phenyl]benzamide] has an IC50 (Btk) of 100 to 1000 nM, an IC50 (Lck) of less than 100 nM and an IC50 (EGFR) of 1000 to 10000 nM. It also gave an IC50 (JAK3) of 1000 to 10000 nM.

Molecule Cc1cc(NC(=O)c2cccc(Oc3ccnc4[nH]nc(N[C@H]5CCN(C(=O)C6CC6)C5)c34)c2)ccc1C(C)C [compound 125, 3-[(3-{[(3S)-1-cyclopropanecarbonylpyrrolidin-3-yl]amino}-1H-pyrazolo[3,4-b]pyridin-4-yl)oxy]-N-[3-methyl-4-(propan-2-yl)phenyl]benzamide] has an IC50 (Btk) of 100 to 1000 nM, an IC50 (Lck) of less than 100 nM and an IC50 (EGFR) greater than 10000 nM. It also gave an IC50 (JAK3) of 1000 to 10000 nM.

For C=CC(=O)N1CC[C@H](Nc2n[nH]c3nccc(Oc4cccc(C(=O)Nc5ccc(C(C)C)c(C)c5)c4)c23)C1 [compound 126, N-[3-methyl-4-(propan-2-yl)phenyl]-3-[(3-{[(3S)-1-(prop-2-enoyl)pyrrolidin-3-yl]amino}-1H-pyrazolo[3,4-b]pyridin-4-yl)oxy]benzamide], the IC50 (Btk) was 100 to 1000 nM, the IC50 (Lck) was less than 100 nM and the IC50 (EGFR) was 1000 to 10000 nM. It also gave an IC50 (JAK3) of 100 to 1000 nM.

Cc1cc(NC(=O)c2cccc(Oc3ccnc4[nH]nc(N[C@H]5CCN(C(=O)c6ccc(F)cc6)C5)c34)c2)ccc1C(C)C [compound 128, 3-[(3-{[(3S)-1-(4-fluorobenzoyl)pyrrolidin-3-yl]amino}-1H-pyrazolo[3,4-b]pyridin-4-yl)oxy]-N-[3-methyl-4-(propan-2-yl)phenyl]benzamide] showed an IC50 (Btk) of 100 to 1000 nM, an IC50 (Lck) of less than 100 nM and an IC50 (EGFR) greater than 10000 nM. It also gave an IC50 (JAK3) greater than 10000 nM.

Molecule C=CC(=O)N1CCC[C@@H](Oc2n[nH]c3nccc(Nc4cccc(C(=O)Nc5ccc(C(C)C)c(C)c5)c4)c23)C1 [compound 132, N-[3-methyl-4-(propan-2-yl)phenyl]-3-[(3-{[(3R)-1-(prop-2-enoyl)piperidin-3-yl]oxy}-1H-pyrazolo[3,4-b]pyridin-4-yl)amino]benzamide] has an IC50 (Btk) of less than 100 nM, an IC50 (Lck) of 1000 to 10000 nM and an IC50 (EGFR) of less than 100 nM. The IC50 (JAK3) was less than 100 nM.

In the case of Cc1cc(NC(=O)c2cccc(Nc3ccnc4[nH]nc(N[C@@H]5CCCN(C(=O)N6CCOCC6)C5)c34)c2)ccc1C(C)C [compound 133, N-[3-methyl-4-(propan-2-yl)phenyl]-3-[(3-{[(3R)-1-(morpholine-4-carbonyl)piperidin-3-yl]amino}-1H-pyrazolo[3,4-b]pyridin-4-yl)amino]benzamide], the IC50 (Btk) is reported as 100 to 1000 nM, the IC50 (Lck) is reported as 1000 to 10000 nM and the IC50 (EGFR) is reported as greater than 10000 nM. The IC50 (JAK3) was greater than 10000 nM.
